*1 amine or outer side, *2 acyl side, *3 side chain or, on linkers, in order; H or OH if unused. Where a SMILES comes first, the peptide text is derived from it. Bridges are numbered along the chain shown (N, C = ends). [ ]: non-standard residue; d: D form. The star is where a group is joined. hPhe(3,5-F2-4-CF3) = N[C@@H](CCc1cc(F)c(C(F)(F)F)c(F)c1)C(=O)O; NPrPhe(4-CF3) = CCCN[C@@H](Cc1ccc(C(F)(F)F)cc1)C(=O)O; NMeAbu(4,4,4-F3) = CN[C@@H](CC(F)(F)F)C(=O)O; X16 = O=C([C@@H](N[*:1])C1CC(F)(F)C1)[*:2]; NMeGly(cPent) = CN[C@H](C(=O)O)C1CCCC1; Ac4c(3,3-F2) = NC1(C(=O)O)CC(F)(F)C1; X9 = C[C@@](N[*:1])(C(=O)[*:2])C1CC1; Nva(3-Et) = CCC(CC)[C@H](N)C(=O)O; αMeI = CC[C@H](C)[C@](C)(N)C(=O)O; NMeD = CN[C@@H](CC(=O)O)C(=O)O; Ac4c(3-oxa) = NC1(C(=O)O)COC1; NMeL = CN[C@@H](CC(C)C)C(=O)O; αMeV = CC(C)[C@](C)(N)C(=O)O; Morpholide = C1CN(*)CCO1; Ac5c = NC1(C(=O)O)CCCC1; Aze = O=C(O)[C@@H]1CCN1; Sar = CNCC(=O)O
How the values were obtained:
[1] = molecular target: GDP-bound NRAS wild-type protein (Homo sapiens, UniProt P01111); experiment: Binding to NRAS by surface plasmon resonance (SPR), Single Cycle Kinetics; details: KD ratio NRAS/KRAS, SPR
Chain of GDP-bound NRAS wild-type protein (P01111 whole entry): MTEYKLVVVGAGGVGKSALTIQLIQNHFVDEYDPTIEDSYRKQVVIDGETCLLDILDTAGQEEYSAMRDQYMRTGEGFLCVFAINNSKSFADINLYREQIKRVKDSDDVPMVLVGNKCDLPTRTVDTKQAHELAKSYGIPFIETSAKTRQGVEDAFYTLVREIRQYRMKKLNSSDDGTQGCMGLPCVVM

[2] = molecular target: GDP-bound HRAS wild-type protein (Homo sapiens, UniProt P01112); experiment: Binding to HRAS by surface plasmon resonance (SPR), Single Cycle Kinetics; details: KD ratio HRAS/KRAS, SPR
Chain of GDP-bound HRAS wild-type protein (P01112 whole entry): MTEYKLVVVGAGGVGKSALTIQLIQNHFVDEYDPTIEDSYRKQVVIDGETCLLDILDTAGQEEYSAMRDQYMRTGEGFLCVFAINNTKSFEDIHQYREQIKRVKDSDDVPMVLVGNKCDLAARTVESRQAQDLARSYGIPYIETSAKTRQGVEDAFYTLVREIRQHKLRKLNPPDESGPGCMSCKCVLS

SMILES | NRAS/KRAS (ratio of KD value with respect to GDP-bound NRAS wild-type protein to KD value with respect to KRAS) [1] | HRAS/KRAS (ratio of KD value with respect to GDP-bound HRAS wild-type protein to KD value with respect to KRAS) [2]
CCCN1C(=O)CN(C)C(=O)CN(C)C(=O)[C@H]([C@@H](C)CC)NC(=O)[C@H](CC(C)C)N(C)C(=O)C[C@@H](C(=O)N2CCOCC2)N(C)C(=O)[C@H](C2CCCC2)N(C)C(=O)C2(COC2)NC(=O)[C@@H]2CCCN2C(=O)[C@H](CCc2cc(F)c(C(F)(F)F)c(F)c2)NC(=O)CN(C)C(=O)[C@@H]1Cc1ccc(C(F)(F)F)cc1 [PP0765] ([NMeL]I[Sar][Sar][NPrPhe(4-CF3)][Sar][hPhe(3,5-F2-4-CF3)]P[Ac4c(3-oxa)][NMeGly(cPent)][NMeD]-Morpholide; lactam N-11) | B (a compound having 3 or more and less than 10 is denoted as B) | C (A compound having a KD ratio of 0.1 or more and less than 3 is denoted as C)
CCCN1C(=O)CN(C)C(=O)CN(C)C(=O)[C@H]([C@@H](C)CC)NC(=O)[C@H](CC(C)C)N(C)C(=O)C[C@@H](C(=O)N2CCOCC2)N(C)C(=O)[C@H](C2CCCC2)N(C)C(=O)C2(CC(F)(F)C2)NC(=O)[C@@H]2CCCN2C(=O)[C@H](CCc2cc(F)c(C(F)(F)F)c(F)c2)NC(=O)CN(C)C(=O)[C@@H]1Cc1ccc(C(F)(F)F)cc1 [PP0766] ([NMeL]I[Sar][Sar][NPrPhe(4-CF3)][Sar][hPhe(3,5-F2-4-CF3)]P[Ac4c(3,3-F2)][NMeGly(cPent)][NMeD]-Morpholide; lactam N-11) | B (a compound having 3 or more and less than 10 is denoted as B) | B (a compound having 3 or more and less than 10 is denoted as B)
CCCN1C(=O)CN(C)C(=O)CN(C)C(=O)[C@H]([C@@H](C)CC)NC(=O)[C@H](CC(C)C)N(C)C(=O)C[C@@H](C(=O)N2CCOCC2)N(C)C(=O)[C@H](CC(F)(F)F)N(C)C(=O)C2(CCCC2)NC(=O)[C@@H]2CCCN2C(=O)[C@H](CCc2cc(F)c(C(F)(F)F)c(F)c2)NC(=O)CN(C)C(=O)[C@@H]1Cc1ccc(C(F)(F)F)cc1 [PP0767] ([NMeL]I[Sar][Sar][NPrPhe(4-CF3)][Sar][hPhe(3,5-F2-4-CF3)]P[Ac5c][NMeAbu(4,4,4-F3)][NMeD]-Morpholide; lactam N-11) | B (a compound having 3 or more and less than 10 is denoted as B) | C (A compound having a KD ratio of 0.1 or more and less than 3 is denoted as C)
CCCN1C(=O)CN(C)C(=O)CN(C)C(=O)[C@H](C(CC)CC)NC(=O)[C@H](CC(C)C)N(C)C(=O)C[C@@H](C(=O)N2CCOCC2)N(C)C(=O)[C@H](C2CCCC2)N(C)C(=O)C2(CCCC2)NC(=O)[C@@H]2CCCN2C(=O)[C@H](CCc2cc(F)c(C(F)(F)F)c(F)c2)NC(=O)CN(C)C(=O)[C@@H]1Cc1ccc(C(F)(F)F)cc1 [PP0768] ([NMeL][Nva(3-Et)][Sar][Sar][NPrPhe(4-CF3)][Sar][hPhe(3,5-F2-4-CF3)]P[Ac5c][NMeGly(cPent)][NMeD]-Morpholide; lactam N-11) | B (a compound having 3 or more and less than 10 is denoted as B) | C (A compound having a KD ratio of 0.1 or more and less than 3 is denoted as C)
CCCN1C(=O)CN(C)C(=O)CN(C)C(=O)[C@H](C2CC(F)(F)C2)NC(=O)[C@H](CC(C)C)N(C)C(=O)C[C@@H](C(=O)N2CCOCC2)N(C)C(=O)[C@H](C2CCCC2)N(C)C(=O)C2(CCCC2)NC(=O)[C@@H]2CCCN2C(=O)[C@H](CCc2cc(F)c(C(F)(F)F)c(F)c2)NC(=O)CN(C)C(=O)[C@@H]1Cc1ccc(C(F)(F)F)cc1 [PP0769] ([NMeL][X16][Sar][Sar][NPrPhe(4-CF3)][Sar][hPhe(3,5-F2-4-CF3)]P[Ac5c][NMeGly(cPent)][NMeD]-Morpholide; lactam N-11) | B (a compound having 3 or more and less than 10 is denoted as B) | C (A compound having a KD ratio of 0.1 or more and less than 3 is denoted as C)
CCCN1C(=O)CN(C)C(=O)[C@@H]2CCN2C(=O)[C@H]([C@@H](C)CC)NC(=O)[C@H](CC(C)C)N(C)C(=O)C[C@@H](C(=O)N2CCOCC2)N(C)C(=O)[C@H](C2CCCC2)N(C)C(=O)C2(CCCC2)NC(=O)[C@@H]2CCCN2C(=O)[C@H](CCc2cc(F)c(C(F)(F)F)c(F)c2)NC(=O)CN(C)C(=O)[C@@H]1Cc1ccc(C(F)(F)F)cc1 [PP0770] ([NMeL]I[Aze][Sar][NPrPhe(4-CF3)][Sar][hPhe(3,5-F2-4-CF3)]P[Ac5c][NMeGly(cPent)][NMeD]-Morpholide; lactam N-11) | B (a compound having 3 or more and less than 10 is denoted as B) | B (a compound having 3 or more and less than 10 is denoted as B)
CCCN1C(=O)CN(C)C(=O)[C@@H]2CCN2C(=O)[C@H]([C@@H](C)CC)NC(=O)[C@H](CC(C)C)N(C)C(=O)C[C@@H](C(=O)N2CCOCC2)N(C)C(=O)[C@H](C2CCCC2)N(C)C(=O)[C@](C)(C2CC2)NC(=O)[C@@H]2CCCN2C(=O)[C@H](CCc2cc(F)c(C(F)(F)F)c(F)c2)NC(=O)CN(C)C(=O)[C@@H]1Cc1ccc(C(F)(F)F)cc1 [PP0772] ([NMeL]I[Aze][Sar][NPrPhe(4-CF3)][Sar][hPhe(3,5-F2-4-CF3)]P[X9][NMeGly(cPent)][NMeD]-Morpholide; lactam N-11) | B (a compound having 3 or more and less than 10 is denoted as B) | B (a compound having 3 or more and less than 10 is denoted as B)
CCCN1C(=O)CN(C)C(=O)[C@@H]2CCN2C(=O)[C@H]([C@@H](C)CC)NC(=O)[C@H](CC(C)C)N(C)C(=O)C[C@@H](C(=O)N2CCOCC2)N(C)C(=O)[C@H](C2CCCC2)N(C)C(=O)[C@](C)(C(C)C)NC(=O)[C@@H]2CCCN2C(=O)[C@H](CCc2cc(F)c(C(F)(F)F)c(F)c2)NC(=O)CN(C)C(=O)[C@@H]1Cc1ccc(C(F)(F)F)cc1 [PP0773] ([NMeL]I[Aze][Sar][NPrPhe(4-CF3)][Sar][hPhe(3,5-F2-4-CF3)]P[αMeV][NMeGly(cPent)][NMeD]-Morpholide; lactam N-11) | B (a compound having 3 or more and less than 10 is denoted as B) | B (a compound having 3 or more and less than 10 is denoted as B)
CCCN1C(=O)CN(C)C(=O)[C@@H]2CCN2C(=O)[C@H]([C@@H](C)CC)NC(=O)[C@H](CC(C)C)N(C)C(=O)C[C@@H](C(=O)N2CCOCC2)N(C)C(=O)[C@H](C2CCCC2)N(C)C(=O)[C@](C)([C@@H](C)CC)NC(=O)[C@@H]2CCCN2C(=O)[C@H](CCc2cc(F)c(C(F)(F)F)c(F)c2)NC(=O)CN(C)C(=O)[C@@H]1Cc1ccc(C(F)(F)F)cc1 [PP0774] ([NMeL]I[Aze][Sar][NPrPhe(4-CF3)][Sar][hPhe(3,5-F2-4-CF3)]P[αMeI][NMeGly(cPent)][NMeD]-Morpholide; lactam N-11) | B (a compound having 3 or more and less than 10 is denoted as B) | B (a compound having 3 or more and less than 10 is denoted as B)

Source: US20250230193A1, “CYCLIC COMPOUND HAVING SELECTIVE KRAS INHIBITORY EFFECT ON HRAS AND NRAS” (CHUGAI SEIYAKU KABUSHIKI KAISHA, priority 2022, published 2025)
